Assay results taken from patent US20140242093A1, “METHODS AND COMPOSITIONS FOR MODULATING THE INNATE IMMUNE RESPONSE AND/OR MYOGENESIS IN A MAMMALIAN SUBJECT” (FRED HUTCHINSON CANCER RESEARCH CENTER, priority 2011, published 2014).

Tested on: control human primary myoblasts
Experiment: Expression microarray of primary myoblasts transduced with lentivirus carrying DUX4-fl, DUX4-s or GFP
Procedure: Primary human myoblasts were collected and cultured as previously described (Snider et al., 2010). Primary myoblasts were maintained at or below 70% confluency for proliferation. For differentiation, cells were allowed to reach 95-100% confluency in growth medium. Once confluency was reached, the cells were changed to differentiation medium (F10 media supplemented with 1% horse serum, 10 μg/mL insulin, and 10 μg/mL transferrin, penicillin/streptomycin) and maintained for 4 days. Human RD cells were grown in DMEM in 10% bovine calf serum (Hyclone) and penicillin/streptomycin. The primary myoblasts were transduced with lentivirus carrying DUX-fl, DUX4- or GFP (MOI=15).
Expression microarrays were performed on the transduced cells at 24 hours after transduction as follows. […] Samples were analyzed by Illumina Human Whole Genome microarrays. Probe intensities were corrected, normalized, and summarized by the Lumi package of Bioconductor (Du et al., 2008). Differentially expressed genes were identified by the LIMMA package of Bioconductor (Wettenhall and Smyth, 2004). Gene set enrichment analysis (GSEA) was performed using the Bioconductor GOstats package (Falcon and Gentleman, 2007).

## DUX4-fl: full-length DUX4 protein (SEQ ID NO:110), expressed from lentiviral or pCS2 vectors or in vitro translated
Refseq XM_001131473.2
  LOC728450 expression fc: 2.474
Refseq XM_001132711.1
  RFNG fc: −1.116
Refseq XM_001133386.1
  LOC732416 expression fc: 2.329
Refseq XM_001134346.1
  THOC4 expression fc: 4.035
Refseq XM_001713659.1
  PRAMEF15 expression fc: 7
Refseq XM_001713681.1
  LOC100131392 expression fc: 6.976
Refseq XM_001713808.1
  LOC100132564 expression fc: 3.588
Refseq XM_001713901.1
  LOC391769 expression fc: 8.19
Refseq XM_001713933.1
  PRAMEF13 expression fc: 7.422
Refseq XM_001714028.1
  PRAMEF11 expression fc: 5.94
Refseq XM_001714301.1
  fc of LOC285296 (expression array): −1.042
Refseq XM_001714755.1
  LOC100133588 expression fc: 2.2
Refseq XM_001714786.1
  CTGLF7 expression fc: 3.437
Refseq XM_001714940.1
  LOC100129630 expression fc: 1.871
Refseq XM_001715080.1
  LOC391763 expression fc: 1.963
Refseq XM_001717781.1
  LOC642446 expression fc: 3.101
Refseq XM_001717965.1
  LOC100133446 expression fc: 4.635
Refseq XM_001718314.1
  LOC100129165 fc: −1.161
Refseq XM_001718563.1
  LOC643336 expression fc: 1.934
Refseq XM_001718702.1
  LOC100129053 expression fc: 2.724
Refseq XM_001719052.1
  LOC100130652 expression fc: 3.33
Refseq XM_001719234.1
  RFPL4A expression fc: 4.348
Refseq XM_001719546.1
  LOC728809 fc: −1.14
Refseq XM_001719549.1
  LOC100134199 expression fc: 8.048
Refseq XM_001721351.1
  PNMA6B expression fc: 3.603
Refseq XM_001723079.1
  LOC100133984 expression fc: 6.204
Refseq XM_001723218.1
  LOC649330 expression fc: 3.101
Refseq XM_001723719.1
  LOC100128202 expression fc: 3.711
Refseq XM_001724111.1
  LOC100130311 expression fc: 2.912
Refseq XM_001724873.1
  LOC100131539 expression fc: 4.629
Refseq XM_001725030.1
  LOC100134006 expression fc: 7.087
Refseq XM_001726158.1
  LOC730167 expression fc: 3.656
Refseq XM_001726834.1, cultured human skeletal muscle
  LOC100129681 expression fc: −4.075
Refseq XM_001732813.1
  LOC651709 expression fc: 2.304
Refseq XR_015137.1
  LOC727828 expression fc: 3.054
Refseq XR_015272.2
  LOC728060 fc: −1.095
Refseq XR_015873.1
  LOC732393 expression fc: 4.637
Refseq XR_016048.1
  MGC40489 expression fc: 2.542
Refseq XR_016355.1
  LOC643263 expression fc: 8.345
Refseq XR_017029.1
  LOC441081 expression fc: 3.764
Refseq XR_018122.1
  LOC647366 expression fc: 3.783
Refseq XR_018122.2
  LOC440041 expression fc: 3.895
Refseq XR_018213.1
  LOC647827 expression fc: 4.053
Refseq XR_018287.2
  LOC399988 expression fc: 1.966
Refseq XR_018889.1
  LOC650215 fc: −1.139
Refseq XR_019556.2
  fc of RBMS2P (expression array): −0.4507
Refseq XR_019607.1
  LOC642148 expression fc: 6.851
Refseq XR_036872.1
  LOC650236 expression fc: 2.915
Refseq XR_037416.1
  LOC100134322 expression fc: 2.488
Refseq XR_037751.1
  LOC730974 expression fc: 7.715
Refseq XR_038080.1
  LOC643445 expression fc: 8.25
Refseq XR_038445.1
  LOC729516 expression fc: 5.955
Refseq XR_038494.1
  LOC340970 expression fc: 8.316
Refseq XR_038557.1
  LOC645381 expression fc: 2.089
Refseq XR_038921.1
  LOC728429 expression fc: 2.178
Refseq XR_040455.1
  LOC645638 fc: −1.128
Refseq XR_041115.1
  LOC400464 expression fc: 2.831
Refseq XR_041244.1
  TRIM53 expression fc: 4.778
Refseq XR_042330.1, cultured human skeletal muscle
  LOC729009 expression fc: −2.654
Table 1
  number of genes increased 8-fold or more: 164 genes
  number of genes increased 16-fold or more: 107 genes
Cultured human skeletal muscle
  ABCC3 expression fc: −1.491
  ADM expression fc: −1.619
  AGTRAP expression fc: −1.467
  AHNAK expression fc: −1.441
  ANGPTL2 expression fc: −1.893
  ANKFY1 expression fc: −1.396
  APOL3 expression fc: −1.548
  ARHGEF19 expression fc: −1.4
  ARID3A expression fc: −1.573
  ASNS expression fc: −1.454
  ATF5 expression fc: −1.826
  ATL3 expression fc: −1.455
  BHLHB2 expression fc: −1.43
  BTG2 expression fc: −1.573
  BTN3A2 expression fc: −1.759
  BTN3A3 expression fc: −1.62
  C1RL expression fc: −1.627
  C4orf18 expression fc: −1.781
  C8orf13 expression fc: −1.412
  C14orf4 expression fc: −1.476
  C18orf56 expression fc: −1.619
  CA9 expression fc: −1.526
  CABC1 expression fc: −1.494
  CABYR expression fc: −1.758
  CCDC8 expression fc: −1.453
  CEBPD expression fc: −1.521
  CLDN15 expression fc: −1.554
  CNTNAP1 expression fc: −1.744
  COL8A1 expression fc: −1.527
  CRISPLD2 expression fc: −1.752
  CSF3 expression fc: −1.626
  CYGB expression fc: −1.398
  CYP26B1 expression fc: −1.461
  CYP27A1 expression fc: −1.6
  DAB2 expression fc: −1.807
  DCN expression fc: −1.673
  DDB2 expression fc: −1.408
  DDIT4 expression fc: −1.522
  DDX60L expression fc: −1.638
  DKFZp451A211 expression fc: −1.833
  DNAJB2 expression fc: −1.488
  DUSP10 expression fc: −1.39
  ERAP2 expression fc: −1.605
  ESPNL expression fc: −1.567
  FADS1 expression fc: −1.845
  FAM110B expression fc: −1.675
  FAM175A expression fc: −1.54
  FHL2 expression fc: −1.58
  FILIP1L expression fc: −1.784
  FKBP5 expression fc: −1.758
  FOXQ1 expression fc: −1.432
  FPR1 expression fc: −1.603
  FST expression fc: −1.812
  FUCA1 expression fc: −1.615
  GALK1 expression fc: −1.411
  GALNTL2 expression fc: −1.834
  GAS1 expression fc: −1.732
  GBP4 expression fc: −1.478
  GFPT2 expression fc: −1.612
  GPX8 expression fc: −1.606
  GRINA expression fc: −1.427
  GSDMD expression fc: −1.763
  HAS2 expression fc: −1.679
  HCG4 expression fc: −1.651
  HES4 expression fc: −1.751
  HLA-C expression fc: −1.788
  HLA-H expression fc: −1.798
  HOXC6 expression fc: −1.539
  ID3 expression fc: −1.627
  IDH3B expression fc: −1.542
  IFIT5 expression fc: −1.645
  IFITM2 expression fc: −1.713
  IGFBP5 expression fc: −1.441
  IHPK3 expression fc: −1.859
  IL32 expression fc: −1.681
  IMPA2 expression fc: −1.437
  IRAK2 expression fc: −1.447
  IRAK3 expression fc: −1.5
  ISCU expression fc: −1.547
  ITPRIP expression fc: −1.763
  KIAA1618 expression fc: −1.843
  KLF6 expression fc: −1.659
  KRT17 expression fc: −1.626
  LAP3 expression fc: −1.552
  LIMA1 expression fc: −1.463
  LOC387763 expression fc: −1.46
  LOC389386 expression fc: −1.521
  LOC392437 expression fc: −1.674
  LOC653879 expression fc: −1.416
  LOC728431 expression fc: −1.44
  MAMDC2 expression fc: −1.858
  MAOA expression fc: −1.71
  MCEE expression fc: −1.398
  MGC16121 expression fc: −1.828
  MIOS expression fc: −1.485
  MLPH expression fc: −1.788
  MMP3 expression fc: −1.509
  MOCOS expression fc: −1.716
  MOV10 expression fc: −1.658
  MSC expression fc: −1.605
  MSI2 expression fc: −1.763
